Data on 32 molecules can be found in patent US10208071B2, “Use of agonists of formyl peptide receptor 2 for treating ocular inflammatory diseases” (Allergan, Inc., priority 2013, dated 2019).

The target in the test is FPR2 (Homo sapiens (Human), UniProt P25090). Nature of the test: FLIPR Ca+2 response, HEK-Gα16 cells stably expressing the human FPR2 receptor (Table 4). The class given is cell-based. To be noted: for FPR2 (efficacy): efficacy in parentheses. On the procedure:
FLIPR: HEK-Gα16 cells stably expressing the human FPR2 receptor was utilized. Cells were plated into 384-well poly-D-lysine coated plates at a density of 18,000 cells per well one day prior to use. The growth media was DMEM medium supplemented with 10% fetal bovine serum (FBS), 1% antibiotic-antimycotic, 50 μg/ml hygromycin, and 400 μg/ml geneticin. On the day of the experiment, the cells were washed twice with Hank's Balanced Salt Solution supplemented with 20 mM HEPES (HBSS/hepes buffer). The cells were then dye loaded with 2 μM Fluo-4 diluted in the HBSS/Hepes buffer and incubated at 37° C. for 40 minutes. Extracellular dye was removed by washing the cell plates four times prior to placing the plates in the FLIPR (Fluorometric Imaging Plate Reader, Molecular Devices). Ligands were diluted in HBSS/Hepes buffer and prepared in 384-well microplates. Data for Ca^+2 responses were obtained in relative fluorescence units.

SMILES strings stand for the structures. Read-outs that look alike come from different tables or passages of the source.

FPR2, sequence (P25090 whole entry): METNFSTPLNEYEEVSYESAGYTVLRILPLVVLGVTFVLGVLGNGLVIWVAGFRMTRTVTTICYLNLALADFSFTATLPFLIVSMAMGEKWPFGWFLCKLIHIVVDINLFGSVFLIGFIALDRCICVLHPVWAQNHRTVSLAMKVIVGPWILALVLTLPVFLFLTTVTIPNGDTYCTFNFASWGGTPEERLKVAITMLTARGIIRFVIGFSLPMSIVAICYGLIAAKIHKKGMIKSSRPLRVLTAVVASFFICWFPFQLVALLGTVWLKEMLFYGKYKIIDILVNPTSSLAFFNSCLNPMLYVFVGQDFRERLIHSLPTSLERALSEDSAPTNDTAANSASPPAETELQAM

Broadly, the EC50 is the concentration that produces a half-maximal response. High values mean a less potent agent, low ones a more potent agent. For `CCC[C@H](NC(=O)Nc1ccc(Br)cc1)C(=O)NCP(=O)(OC(C)C)OC(C)C` [Compound 125, dipropan-2-yl ({[(2S)-2-{[(4-bromophenyl)carbamoyl]amino}pentanoyl]amino}methyl) phosphonate], a half-maximal effect (EC50) was put at 1.2 nM and the “FPR2 (efficacy)” value is listed as “nM (1.0)”.

With `CSc1ccc(NC(=O)Nc2ccc3c(c2)C(=O)N(CCCN)C(C)C3)cc1` (stereo not shown) [Compound 42, 1-[2-(3-aminopropyl)-3-methyl-1-oxo-1,2,3,4-tetrahydroisoquinolin-7-yl]-3-[4-(methylsulfanyl)phenyl]urea], the “FPR2 (efficacy)” value was “nM (1.00)”.

As for `CCC1(CC)NC(=O)N(NC(=O)Nc2ccc(Br)cc2)C1=O` [Compound 49, 1-(4-bromophenyl)-3-(4,4-diethyl-2,5-dioxoimidazolidin-1-yl)urea], the EC50 turned out to be 11.5 nM and the “FPR2 (efficacy)” value was “nM (0.98)”.

Take `CC(C)C[C@H](NC(=O)Nc1ccc(Br)cc1)C(=O)O` [Compound 9, (2S)-2-{[(4-bromophenyl)carbamoyl]amino}-4-methylpentanoic acid]: the “FPR2 (efficacy)” value is recorded as “(0.77)”. For the same molecule, the EC50 (unit inferred) turned out to be 5.95 nM.

With `CSc1ccc(NC(=O)Nc2ccc3c(c2)C(=O)N(CCc2c[nH]cn2)C(c2ccc(Cl)cn2)C3)cc1` (stereo not shown) [Compound 32, 1-{3-(5-chloropyridin-2-yl)-2-[2-(1H-imidazol-4-yl)ethyl]-1-oxo-1,2,3,4-tetrahydroisoquinolin-7-yl}-3-[4-(methylsulfanyl)phenyl]urea], the “FPR2 (efficacy)” value is reported as “nM (0.91)”.

On to `O=C(O)C1C(C(=O)Nc2ccc(I)cc2)C2CCC1C21CC1` (stereo not shown) [Compound 15, 3-[(4-iodophenyl)carbamoyl] spiro[bicyclo[2.2.1]heptane-7,1′-cyclopropane]-2-carboxylic acid], for which it took 0.6 nM to reach a half-maximal effect (EC50) and the “FPR2 (efficacy)” value is recorded as “nM (0.87)”.

Turning to `O=C(Nc1ccc(Br)cc1F)N[C@@H](Cc1ccccc1)C(=O)NCCO` [Compound 71, (2S)-2-{[(4-bromo-2-fluorophenyl)carbamoyl]amino}-N-(2-hydroxyethyl)-3-phenylpropanamide], the EC50 stood at 15.6 nM and the “FPR2 (efficacy)” value is recorded as “nM (0.98)”.

On to `CCOP(=O)(O)CNC(=O)[C@@H](NC(=O)Nc1ccc(Br)cc1)[C@@H](C)CC` [Compound 115, ethyl hydrogen ({[(2S,3S)-2-{[(4-bromophenyl)carbamoyl]amino}-3-methylpentanoyl]amino}methyl)phosphonate], for which the concentration giving a half-maximal response (EC50) was 2.7 nM and the “FPR2 (efficacy)” value is given as “nM (0.88)”.

As for `O=C(Nc1ccc(Br)cc1)NN1C(=O)NC2(CCCCC2)C1=O` [Compound 52, 1-(4-bromophenyl)-3-(2,4-dioxo-1,3-diazaspiro[4.5]dec-3-yl)urea], the concentration giving a half-maximal response (EC50) is 15.1 nM and the “FPR2 (efficacy)” value was “nM (1.0)”.

Turning to `CC(=O)c1ccc(NC(=O)Nc2ccc3c(c2)C(=O)N(CCc2c[nH]cn2)C(c2ccc(C#N)cc2)C3)cc1` (stereo not shown) [Compound 13, 1-(4-acetylphenyl)-3-{3-(4-cyanophenyl)-2-[2-(1H-imidazol-4-yl)ethyl]-1-oxo-1,2,3,4-tetrahydroisoquinolin-7-yl}urea], the “FPR2 (efficacy)” value is “nM (0.80)”.

Turning to `N#Cc1ccc(C2Cc3ccc(NC(=O)Nc4ccc(I)cc4)cc3C(=O)N2CCCN)cc1` (stereo not shown) [Compound 43, 1-[2-(3-aminopropyl)-3-(4-cyanophenyl)-1-oxo-1,2,3,4-tetrahydroisoquinolin-7-yl]-3-(4-iodophenyl)urea], a half-maximal effect (EC50) was put at 13.7 nM and the “FPR2 (efficacy)” value is on record as “nM (0.94)”.

For `CC[C@H](C)[C@H](NC(=O)Nc1ccc(Br)cc1F)C(=O)NCC(N)=O` [Compound 62, (2S,3S)-N-(2-amino-2-oxoethyl)-2-{[(4-bromo-2-fluorophenyl)carbamoyl]amino}-3-methylpentanamide], a half-maximal response (EC50) required 10.3 nM and the “FPR2 (efficacy)” value was “nM (1.0)”.

Consider `CC1(CCc2ccccc2)NC(=O)N(NC(=O)Nc2ccc(Br)cc2)C1=O` (single isomer, unassigned; (+)) [Compound 57], for which the “FPR2 (efficacy)” value is on record as “nM (0.93)”.

`CC(C)C[C@H](NC(=O)Nc1ccc(Br)cc1)C(=O)NCc1cc(O)no1` [Compound 116, (2S)-2-{[(4-bromophenyl)carbamoyl]amino}-N-[(3-hydroxy-1,2-oxazol-5-yl)methyl]-4-methylpentanamide]: the “FPR2 (efficacy)” value is listed as “nM (1.0)”.

For the molecule `CCC[C@H](NC(=O)Nc1ccc(Br)cc1)C(=O)NCC(=O)OC` [Compound 72, methyl{[(2S)-2-{[(4-bromophenyl)carbamoyl]amino}pentanoyl]amino}acetate], the midpoint of the response, the EC50, lay at 16.4 nM and the “FPR2 (efficacy)” value is listed as “nM (0.86)”.

As for `CCC(C)[C@@H](NC(=O)Nc1ccc(Br)cc1)C(=O)O` (stereo in doubt) [Compound 122, (2R,3R)-2-{[(4-bromophenyl)carbamoyl]amino}-3-methylpentanoic acid], the “FPR2 (efficacy)” value is given as “μM (0.59)”.

Take `CC(C)C[C@H](NC(=O)Nc1ccc(Br)cc1F)C(=O)NCC(=O)O` [Compound 7, {[(2S)-2-{[(4-bromo-2-fluorophenyl)carbamoyl]amino}-4-methylpentanoyl]amino}acetic acid]: the “FPR2 (efficacy)” value was “(1.0)”. Where the note is “unit inferred”, this molecule gave an EC50 of 3.57 nM.

`CC(C)C[C@H](NC(=O)Nc1ccc(Br)cc1)C(=O)NCc1nnn[nH]1` [Compound 104, (2S)-2-{[(4-bromophenyl)carbamoyl]amino}-4-methyl-N-(1H-tetrazol-5-ylmethyl)pentanamide]: the “FPR2 (efficacy)” value is reported as “nM (0.81)”.

Consider `CC(C)C1(CC(=O)NCCO)NC(=O)N(NC(=O)Nc2ccc(Br)cc2)C1=O` (stereo not shown) [Compound 133, 2-[1-{[(4-bromophenyl)carbamoyl]amino}-2,5-dioxo-4-(propan-2-yl)imidazolidin-4-yl]-N-(2-hydroxyethyl)acetamide], for which a half-maximal effect (EC50) was put at 2.7 nM and the “FPR2 (efficacy)” value was “nM (1.0)”.

`CC(C)CC(C)(NC(=O)Nc1ccc(Br)cc1)C(=O)NCC(=O)O` (stereo not shown) [Compound 111, [(2-{[(4-bromophenyl)carbamoyl]amino}-2,4-dimethylpentanoyl)amino] acetic acid]: the midpoint of the response, the EC50, lay at 19.1 nM and the “FPR2 (efficacy)” value was “nM (0.99)”.

On to `CC1(CCc2ccccc2F)NC(=O)N(NC(=O)Nc2ccc(Br)cc2)C1=O` (stereo not shown) [Compound 80, 1-(4-bromophenyl)-3-{4-[2-(2-fluorophenyl)ethyl]-4-methyl-2,5-dioxoimidazolidin-1-yl}urea], for which the EC50 came to 14.3 nM and the “FPR2 (efficacy)” value is “nM (99)”.

Take `CCOP(=O)(O)CNC(=O)[C@H](Cc1ccccc1)NC(=O)Nc1ccc(Br)cc1` [Compound 126, ethyl hydrogen ({[(2S)-2-{[(4-bromophenyl)carbamoyl]amino}-3-phenylpropanoyl]amino}methyl)phosphonate]: the “FPR2 (efficacy)” value is recorded as “nM (1.0)”.

In the case of `NC(=O)C1C(C(=O)Nc2ccc(Br)cc2)C2CCC1C21CC1` (single isomer, unassigned; (-)) [Compound 45, (−) N-(4-bromophenyl)spiro[bicyclo[2.2.1]heptane-7,1′-cyclopropane]-2,3-dicarboxamide], the “FPR2 (efficacy)” value is “nM (0.91)”.

Regarding `CCOP(=O)(CNC(=O)[C@H](CC(C)C)NC(=O)Nc1ccc(Br)cc1)OCC` [Compound 112, diethyl ({[(2S)-2-{[(4-bromophenyl)carbamoyl]amino}-4-methylpentanoyl]amino}methyl)phosphonate], the EC50 amounted to 0.48 nM.

Consider `O=C(Nc1ccc(Br)cc1)NC(Cc1ccccc1)C(=O)NC1CCCCNC1=O` (stereo not shown) [Compound 10, 2-{[(4-bromophenyl)carbamoyl]amino}-N-(2-oxoazepan-3-yl)-3-phenylpropanamide], for which the response was half-maximal at 11 nM (EC50) and the “FPR2 (efficacy)” value is “nM (0.89)”.

Consider `CC[C@H](C)[C@H](NC(=O)Nc1ccc(Br)cc1)C(=O)NCC(C)=O` [Compound 63], for which the EC50 turned out to be 10.5 nM and the “FPR2 (efficacy)” value is recorded as “nM (0.97)”.

As to `CC1(C)C2CCC1C(C(=O)Nc1ccc(Br)cc1)C2C(=O)O` (stereo not shown) [Compound 21, 3-[(4-bromophenyl)carbamoyl]-7,7-dimethylbicyclo[2.2.1]heptane-2-carboxylic acid], the “FPR2 (efficacy)” value is “nM (0.85)”.

Regarding `CC(C)C[C@H](NC(=O)Nc1ccc(Br)cc1)C(=O)N(C)CC(=O)OC(C)(C)C` [Compound 154, tert-butyl {[(2S)-2-{[(4-bromophenyl)carbamoyl]amino}-4-methylpentanoyl](methyl)amino} acetate], the EC50 was 12 nM and the “FPR2 (efficacy)” value is “nM (0.85)”.

With `CC[C@H](C)[C@H](NC(=O)Nc1ccc(Br)cc1F)C(=O)O` [Compound 5, (2S,3S)-2-{[(4-bromo-2-fluorophenyl)carbamoyl]amino}-3-methylpentanoic acid], the “FPR2 (efficacy)” value was “(0.96)”. Besides, the EC50 (unit inferred) is 31 nM.

Consider `CCC1(CCc2ccccc2C(=O)O)NC(=O)N(NC(=O)Nc2ccc(Br)cc2F)C1=O` (stereo not shown) [Compound 146, 2-[2-(1-{[(4-bromo-2-fluorophenyl)carbamoyl]amino}-4-ethyl-2,5-dioxoimidazolidin-4-yl)ethyl]benzoic acid], for which the EC50 turned out to be 11.1 nM and the “FPR2 (efficacy)” value is “nM (1.0)”.

For `CSc1ccc(NC(=O)Nc2ccc3c(c2)C(=O)N(CCc2c[nH]cn2)C(c2ccco2)C3)cc1` (stereo not shown) [Compound 23, 1-{3-(furan-2-yl)-2-[2-(1H-imidazol-4-yl)ethyl]-1-oxo-1,2,3,4-tetrahydroisoquinolin-7-yl}-3-[4-(methylsulfanyl)phenyl]urea], the “FPR2 (efficacy)” value is given as “nM (0.83)”.

For the molecule `CSc1ccc(NC(=O)C2C(C(N)=O)C3CCC2C3(C)C)cc1` (stereo not shown) [Compound 37, 7,7-dimethyl-N-[4-(methylsulfanyl)phenyl]bicyclo[2.2.1]heptane-2,3-dicarboxamide], the EC50 was determined as 17 nM and the “FPR2 (efficacy)” value is “nM (0.85)”.
